Laboratory results reported in patent US6762052B1, “DNA sequence encoding flavin-containing monooxygenase” (priority 1993, dated 2004).

Molecular target: T1, glu158-HFMO3-MBP (Homo sapiens, UniProt P31513)
T1 sequence (P31513 2-532): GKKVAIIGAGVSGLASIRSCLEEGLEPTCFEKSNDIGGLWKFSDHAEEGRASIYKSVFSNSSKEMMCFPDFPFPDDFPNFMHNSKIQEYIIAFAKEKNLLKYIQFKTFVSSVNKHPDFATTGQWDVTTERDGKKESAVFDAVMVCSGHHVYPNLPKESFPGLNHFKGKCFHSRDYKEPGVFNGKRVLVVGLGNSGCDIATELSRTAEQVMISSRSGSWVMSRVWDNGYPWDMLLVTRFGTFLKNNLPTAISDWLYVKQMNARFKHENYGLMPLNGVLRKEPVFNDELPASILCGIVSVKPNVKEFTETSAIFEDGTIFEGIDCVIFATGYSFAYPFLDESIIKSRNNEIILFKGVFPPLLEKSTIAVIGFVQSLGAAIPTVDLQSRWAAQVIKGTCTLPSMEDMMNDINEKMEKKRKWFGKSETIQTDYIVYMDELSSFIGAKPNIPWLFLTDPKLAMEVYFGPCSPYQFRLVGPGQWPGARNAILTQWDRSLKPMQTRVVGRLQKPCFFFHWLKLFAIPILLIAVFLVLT
Assay: Substrate oxygenation by glu158-HFMO3-MBP fusion protein, HPLC
Settings: glu158-HFMO3-MBP, N-oxygenation
Description: For HFMO3-MBP assay, all HFMO3-MBP incubations were done as follows: Into a test tube was added DETAPAC (1.2 mM, final concentration for a 250 μl reaction) followed by the addition of 60 μl NADPH generating system (0.4 mM NADP, 0.4 mM glucose-6-phosphate, and 20 μl of a 50 units mI^−1 glucose-6-phosphate dehydrogenase). The tube was chilled on ice and buffer and enzyme were added as described below for individual experiments to give a volume of 240 μl. The incubation was initiated by the addition of 5-DTP (10 μl of 5 mM) and placed in a shaking water bath at 37° C. for 10 min (unless specified otherwise). The incubation was stopped by the addition of 1.0 ml of ice-cold CH2Cl2. Following the addition of sodium carbonate (approx. 20 mg), the culture tube was vortexed, centrifuged (2000×g, 10 min), and the organic layer was removed and transferred to a 1.5 ml microfuge tube. The organic solvent was evaporated under a stream of Ar(g) to dryness and the residue was taken up in MeOH (300 μl) for determination HPLC analysis.
Data was analyzed with a Hitachi D-2500 integrator.
MTS-oxygenation assays were carried out under the same buffer, temperature, time and volume conditions, as for the N-oxygenation assays. The reactions were initiated upon addition of 10 μl of a 5 mM solution of MTS. The reaction was quenched with the addition of 700 μl of 80% CH3CN:20% hexane then 20 mg NaCl(s) and vortexed vigorously for 10 sec. The quenched reactions were then centrifuged briefly to separate the phases. The organic layer, containing product and substrate, was removed and used directly for HPLC analysis.
All other instruments used were the same as above for the N-oxygenation reactions. Conditions for elution were 50% CH3CN/H2O (v:v) with a flow rate gradient as follows: 1.5 ml min^−1 from 0 to 4 min., 1.5-2.5 ml min^−1 from 4 to 5 min, 2.5 ml min^−1 from 5 to 15 min.
Trimethylamine is commonly ingested in foodstuffs or it is available in the diet of humans from choline and other sources. Trimethylamine (TMA) is exclusively eliminated in humans by metabolism to trimethylamine N-oxide (TMANO). […]

CN(C)CCCCCN1c2ccccc2Sc2ccc(C(F)(F)F)cc21 [Compound 5]
Km: 108 µM | Vmax (Lineweaver-Burke analysis): 15.8 nmole/min/nmol of flavin
